Data taken from patent US8614327B2 (Vertex Pharmaceuticals Incorporated, priority 2004, dated 2013).
pEC50: −log10 of the molar value.

Biological target: T1, ΔF508-CFTR (Homo sapiens, UniProt P13569, DEL508-508)
T1 construct: expressed in transfected cells
Assay: Membrane potential optical (FRET/VIPR) assay, identification of potentiator compounds
Type: cell-based
Settings: Table 3, assay not given; for % Activity: relative efficacy
How it was run: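 Double-addition potentiator screen: compound delivered in gluconate-substituted Cl^--free medium, membrane potential followed via CC2-DMPE/DiSBAC2(3) FRET on VIPR. Cells were ΔF508-CFTR-expressing NIH3T3 mouse fibroblasts, held 2 h at 37° C. then 24 h at 27° C. before assay.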

T1 sequence (P13569 with tags, fused parts or gaps DEL508-508): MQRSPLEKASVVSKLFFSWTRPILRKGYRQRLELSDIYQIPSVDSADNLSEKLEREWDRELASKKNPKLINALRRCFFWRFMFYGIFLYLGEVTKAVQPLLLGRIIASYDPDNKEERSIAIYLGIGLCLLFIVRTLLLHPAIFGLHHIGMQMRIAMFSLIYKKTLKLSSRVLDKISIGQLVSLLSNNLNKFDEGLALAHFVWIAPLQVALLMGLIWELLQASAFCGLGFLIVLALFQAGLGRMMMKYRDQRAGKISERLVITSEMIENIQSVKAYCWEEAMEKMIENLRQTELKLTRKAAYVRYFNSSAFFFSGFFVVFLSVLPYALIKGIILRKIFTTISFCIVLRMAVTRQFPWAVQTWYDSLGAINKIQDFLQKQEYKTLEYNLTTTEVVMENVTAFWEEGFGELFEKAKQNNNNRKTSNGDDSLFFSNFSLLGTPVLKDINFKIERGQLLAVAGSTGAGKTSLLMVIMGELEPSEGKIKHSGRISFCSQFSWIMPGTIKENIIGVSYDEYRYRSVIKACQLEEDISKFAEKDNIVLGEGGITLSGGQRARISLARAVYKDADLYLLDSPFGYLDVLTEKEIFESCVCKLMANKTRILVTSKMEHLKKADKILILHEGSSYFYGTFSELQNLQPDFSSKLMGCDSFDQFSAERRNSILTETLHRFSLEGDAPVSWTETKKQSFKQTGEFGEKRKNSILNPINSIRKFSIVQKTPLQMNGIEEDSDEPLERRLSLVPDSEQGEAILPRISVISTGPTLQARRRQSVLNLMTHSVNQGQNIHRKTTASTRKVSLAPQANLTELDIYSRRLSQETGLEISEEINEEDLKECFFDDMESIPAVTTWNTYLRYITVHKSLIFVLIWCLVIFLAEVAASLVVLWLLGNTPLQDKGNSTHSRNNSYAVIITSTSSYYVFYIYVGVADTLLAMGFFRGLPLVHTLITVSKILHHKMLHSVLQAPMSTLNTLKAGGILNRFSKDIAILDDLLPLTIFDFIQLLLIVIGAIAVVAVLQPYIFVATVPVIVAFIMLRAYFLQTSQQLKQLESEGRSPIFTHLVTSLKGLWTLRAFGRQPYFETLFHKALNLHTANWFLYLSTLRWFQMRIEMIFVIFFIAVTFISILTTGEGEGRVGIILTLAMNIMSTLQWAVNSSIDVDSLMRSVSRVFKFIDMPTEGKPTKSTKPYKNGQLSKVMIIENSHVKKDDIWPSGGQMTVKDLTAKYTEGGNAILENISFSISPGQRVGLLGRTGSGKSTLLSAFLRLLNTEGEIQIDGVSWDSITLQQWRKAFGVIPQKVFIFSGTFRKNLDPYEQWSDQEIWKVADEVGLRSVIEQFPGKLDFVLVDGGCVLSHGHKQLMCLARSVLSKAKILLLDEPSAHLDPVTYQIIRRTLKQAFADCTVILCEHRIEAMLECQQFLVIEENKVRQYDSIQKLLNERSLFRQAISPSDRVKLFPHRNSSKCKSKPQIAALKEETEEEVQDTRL

SMILES	pEC50	% Activity
O=C(Nc1ccccc1-c1cccc(OC(F)(F)F)c1)c1c[nH]c2ccccc2c1=O [Compound 253, 4-oxo-N-[2-[3-(trifluoromethoxy)phenyl]phenyl]-1H-quinoline-3-carboxamide]	> 5.00	++ (between 25% to 100%)
O=C(Nc1cc2[nH]ccc2cc1F)c1c[nH]c2ccc(F)cc2c1=O [Compound 254, 6-fluoro-N-(5-fluoro-1H-indol-6-yl)-4-oxo-1H-quinoline-3-carboxamide]	> 5.00	++ (between 25% to 100%)
CC(C)(C)c1cc(C(C)(C)C)c(NC(=O)c2c[nH]c3ccc(S(=O)(=O)N4CCCC4)cc3c2=O)cc1O [Compound 255, N-(5-hydroxy-2,4-ditert-butyl-phenyl)-4-oxo-6-pyrrolidin-1-ylsulfonyl-1H-quinoline-3-carboxamide]	> 5.00	++ (between 25% to 100%)
O=C(Nc1ccc2[nH]nnc2c1)c1c[nH]c2ccccc2c1=O [Compound 256, N-(1H-benzotriazol-5-yl)-4-oxo-1H-quinoline-3-carboxamide]	4.22 to 4.60	+ (<25%)
Cc1cc(NC(=O)c2c[nH]c3ccccc3c2=O)ccc1F [Compound 257, N-(4-fluoro-3-methyl-phenyl)-4-oxo-1H-quinoline-3-carboxamide]	> 5.00	++ (between 25% to 100%)
O=C(Nc1ccc2c(c1)NCC2)c1c[nH]c2ccccc2c1=O [Compound 258, N-Indolin-6-yl-4-oxo-1H-quinoline-3-carboxamide]	> 5.00	++ (between 25% to 100%)
CCC(C)c1c[nH]c2cc(NC(=O)c3c[nH]c4ccccc4c3=O)ccc12 (centres unmarked) [Compound 259, 4-oxo-N-(3-sec-butyl-1H-indol-6-yl)-1H-quinoline-3-carboxamide]	> 5.00	++ (between 25% to 100%)
CC(C)(C)c1ccc(N)cc1NC(=O)c1c[nH]c2ccccc2c1=O [Compound 260, N-(5-Amino-2-tert-butyl-phenyl)-4-oxo-1H-quinoline-3-carboxamide]	> 5.00	++ (between 25% to 100%)
Cc1ccc(-c2ccccc2NC(=O)c2c[nH]c3ccccc3c2=O)cc1C [Compound 261, N-[2-(3,4-dimethylphenyl)phenyl]-4-oxo-1H-quinoline-3-carboxamide]	> 5.00	++ (between 25% to 100%)
O=C1CSc2ccc(NC(=O)c3c[nH]c4ccccc4c3=O)cc2N1 [Compound 262, 1,4-dihydro-N-(3,4-dihydro-3-oxo-2H-benzo[b][1,4]thiazin-6-yl)-4-oxoquinoline-3-carboxamide]	> 5.00	++ (between 25% to 100%)
CCc1cc(Br)ccc1NC(=O)c1c[nH]c2ccccc2c1=O [Compound 263, N-(4-bromo-2-ethyl-phenyl)-4-oxo-1H-quinoline-3-carboxamide]	> 5.00	++ (between 25% to 100%)
CCOc1ccc(OCC)c(NC(=O)c2c[nH]c3ccccc3c2=O)c1 [Compound 264, N-(2,5-diethoxyphenyl)-4-oxo-1H-quinoline-3-carboxamide]	4.60 to 5.00	++ (between 25% to 100%)
O=C(Nc1ccccc1Cc1ccccc1)c1c[nH]c2ccccc2c1=O [Compound 265, N-(2-benzylphenyl)-4-oxo-1H-quinoline-3-carboxamide]	> 5.00	++ (between 25% to 100%)
CC(C)(C)c1cc(C(F)(F)F)c(NC(=O)c2c[nH]c3ccccc3c2=O)cc1O [Compound 266, N-[5-hydroxy-4-tert-butyl-2-(trifluoromethyl)phenyl]-4-oxo-1H-quinoline-3-carboxamide]	> 5.00	++ (between 25% to 100%)
O=C(Nc1ccc(Oc2ccccc2)cc1)c1c[nH]c2ccccc2c1=O [Compound 267, 4-oxo-N-(4-phenoxyphenyl)-1H-quinoline-3-carboxamide]	> 5.00	++ (between 25% to 100%)
CC(C)(C)c1ccc(NC(=O)c2c[nH]c3ccccc3c2=O)cc1S(N)(=O)=O [Compound 268, 4-oxo-N-(3-sulfamoyl-4-tert-butyl-phenyl)-1H-quinoline-3-carboxamide]	4.60 to 5.00	++ (between 25% to 100%)
CCOC(=O)Nc1ccc(C(C)C)c(NC(=O)c2c[nH]c3ccccc3c2=O)c1 [Compound 269, [4-isopropyl-3-[(4-oxo-1H-quinolin-3-yl)carbonylamino]phenyl]aminoformic acid ethyl ester]	> 5.00	++ (between 25% to 100%)
N#Cc1cc2ccc(NC(=O)c3c[nH]c4ccccc4c3=O)cc2[nH]1 [Compound 270, N-(2-cyano-1H-indol-6-yl)-4-oxo-1H-quinoline-3-carboxamide]	> 5.00	++ (between 25% to 100%)
CC(C)(C)c1ccc(NC(=O)c2c[nH]c3ccccc3c2=O)cc1N [Compound 271, N-(3-amino-4-tert-butyl-phenyl)-4-oxo-1H-quinoline-3-carboxamide]	> 5.00	++ (between 25% to 100%)

SMILES	pEC50	% Activity
O=C(Nc1cc(NS(=O)(=O)CCN2CCOCC2)cc(C(F)(F)F)c1)c1c[nH]c2ccccc2c1=O [Compound 272, N-[3-(2-morpholinoethylsulfonylamino)-5-(trifluoromethyl)phenyl]-4-oxo-1H-quinoline-3-carboxamide]	4.60 to 5.00	++ (between 25% to 100%)
CC(C)(C)OC(=O)NC1CCCc2ccc(NC(=O)c3c[nH]c4ccccc4c3=O)cc21 (centres unmarked) [Compound 273, [7-[(4-oxo-1H-quinolin-3-yl)carbonylamino]tetralin-1-yl]aminoformic acid tert-butyl ester]	> 5.00	+++ (>100%)
CC(C)(C)c1cc2cc[nH]c2cc1NC(=O)c1c[nH]c2ccc(S(=O)(=O)N3CCCC3)cc2c1=O [Compound 274, 4-oxo-6-pyrrolidin-1-ylsulfonyl-N-(5-tert-butyl-1H-indol-6-yl)-1H-quinoline-3-carboxamide]	> 5.00	++ (between 25% to 100%)
CC(C)(C)c1ccc(NC(=O)c2cnc3ccccc3c2OCc2ccccc2)cc1O [Compound 275, 4-Benzyloxy-N-(3-hydroxy-4-tert-butyl-phenyl)-quinoline-3-carboxamide]	4.60 to 5.00	++ (between 25% to 100%)
O=C(Nc1ccc(S(=O)(=O)N2CCOCC2)cc1)c1c[nH]c2ccccc2c1=O [Compound 276, N-(4-morpholinosulfonylphenyl)-4-oxo-1H-quinoline-3-carboxamide]	4.60 to 5.00	++ (between 25% to 100%)
O=C(Nc1ccccc1-c1cccc(F)c1)c1c[nH]c2ccccc2c1=O [Compound 277, N-[2-(3-fluorophenyl)phenyl]-4-oxo-1H-quinoline-3-carboxamide]		+++ (>100%)
O=C(Nc1ccccc1-c1cccc(C(F)(F)F)c1)c1c[nH]c2ccccc2c1=O [Compound 278, 4-oxo-N-[2-[3-(trifluoromethyl)phenyl]phenyl]-1H-quinoline-3-carboxamide]	> 5.00	++ (between 25% to 100%)
CSc1ccccc1-c1ccccc1NC(=O)c1c[nH]c2ccccc2c1=O [Compound 279, N-[2-(2-methylsulfanylphenyl)phenyl]-4-oxo-1H-quinoline-3-carboxamide]		++ (between 25% to 100%)
O=C(Nc1ccc2ncccc2c1)c1c[nH]c2ccccc2c1=O [Compound 280, 4-oxo-N-(6-quinolyl)-1H-quinoline-3-carboxamide]	4.22 to 4.60	+ (<25%)
Cc1ccc(NC(=O)c2c[nH]c3ccccc3c2=O)c(C)c1 [Compound 281, N-(2,4-dimethylphenyl)-4-oxo-1H-quinoline-3-carboxamide]	> 5.00	++ (between 25% to 100%)
CCc1ccc(N)cc1NC(=O)c1c[nH]c2ccccc2c1=O [Compound 282, N-(5-amino-2-ethyl-phenyl)-4-oxo-1H-quinoline-3-carboxamide]		++ (between 25% to 100%)
COc1cccc(-c2ccccc2NC(=O)c2c[nH]c3ccccc3c2=O)c1 [Compound 283, N-[2-(3-methoxyphenyl)phenyl]-4-oxo-1H-quinoline-3-carboxamide]	> 5.00	+++ (>100%)
O=C(Nc1ccc2cn[nH]c2c1)c1c[nH]c2ccccc2c1=O [Compound 284, N-(1H-indazol-6-yl)-4-oxo-1H-quinoline-3-carboxamide]	4.60 to 5.00	++ (between 25% to 100%)
O=C(Nc1ccccc1-c1cccc(F)c1F)c1c[nH]c2ccccc2c1=O [Compound 285, N-[2-(2,3-difluorophenyl)phenyl]-4-oxo-1H-quinoline-3-carboxamide]	> 5.00	++ (between 25% to 100%)
O=C(Nc1cccc2c1CCCC2)c1c[nH]c2ccccc2c1=O [Compound 286, 1,4-dihydro-N-(1,2,3,4-tetrahydronaphthalen-5-yl)-4-oxoquinoline-3-carboxamide]	> 5.00	+++ (>100%)
CC1(c2cc(F)c(NC(=O)c3c[nH]c4cccc(O)c4c3=O)cc2O)CCCCC1 [Compound 287, N-[2-fluoro-5-hydroxy-4-(1-methylcyclohexyl)-phenyl]-5-hydroxy-4-oxo-1H-quinoline-3-carboxamide]	> 5.00	++ (between 25% to 100%)
COC(=O)Oc1c(NC(=O)c2c[nH]c3ccccc3c2=O)cc(F)cc1C(C)(C)C [Compound 288, N-(5-fluoro-2-methoxycarbonyloxy-3-tert-butyl-phenyl)-4-oxo-1H-quinoline-3-carboxamide]	> 5.00	++ (between 25% to 100%)
Cc1ccc(NC(=O)c2c[nH]c3ccccc3c2=O)c(F)c1 [Compound 289, N-(2-fluoro-4-methyl-phenyl)-4-oxo-1H-quinoline-3-carboxamide]	> 5.00	++ (between 25% to 100%)
